Data on 1 molecule can be found in ChEMBL document CHEMBL6103672, “Discovery of HMPL-306 (Ranosidenib), a New Potent and Selective Dual Inhibitor of Mutant IDH1 and 2 in Clinical Development for Cancer Treatment” (ACS Med Chem Lett, 2025).

In data set [1] the target is Voltage-gated inwardly rectifying potassium channel KCNH2 (Homo sapiens, UniProt Q12809). Put plainly: Inhibition of hERG expressed in CHO cells by manual patch-clamp assay. The format is toxicity, cell-based. In general terms: hERG is a cardiac potassium channel; its block is linked to QT prolongation.
Sequence of Voltage-gated inwardly rectifying potassium channel KCNH2 (Q12809 whole entry): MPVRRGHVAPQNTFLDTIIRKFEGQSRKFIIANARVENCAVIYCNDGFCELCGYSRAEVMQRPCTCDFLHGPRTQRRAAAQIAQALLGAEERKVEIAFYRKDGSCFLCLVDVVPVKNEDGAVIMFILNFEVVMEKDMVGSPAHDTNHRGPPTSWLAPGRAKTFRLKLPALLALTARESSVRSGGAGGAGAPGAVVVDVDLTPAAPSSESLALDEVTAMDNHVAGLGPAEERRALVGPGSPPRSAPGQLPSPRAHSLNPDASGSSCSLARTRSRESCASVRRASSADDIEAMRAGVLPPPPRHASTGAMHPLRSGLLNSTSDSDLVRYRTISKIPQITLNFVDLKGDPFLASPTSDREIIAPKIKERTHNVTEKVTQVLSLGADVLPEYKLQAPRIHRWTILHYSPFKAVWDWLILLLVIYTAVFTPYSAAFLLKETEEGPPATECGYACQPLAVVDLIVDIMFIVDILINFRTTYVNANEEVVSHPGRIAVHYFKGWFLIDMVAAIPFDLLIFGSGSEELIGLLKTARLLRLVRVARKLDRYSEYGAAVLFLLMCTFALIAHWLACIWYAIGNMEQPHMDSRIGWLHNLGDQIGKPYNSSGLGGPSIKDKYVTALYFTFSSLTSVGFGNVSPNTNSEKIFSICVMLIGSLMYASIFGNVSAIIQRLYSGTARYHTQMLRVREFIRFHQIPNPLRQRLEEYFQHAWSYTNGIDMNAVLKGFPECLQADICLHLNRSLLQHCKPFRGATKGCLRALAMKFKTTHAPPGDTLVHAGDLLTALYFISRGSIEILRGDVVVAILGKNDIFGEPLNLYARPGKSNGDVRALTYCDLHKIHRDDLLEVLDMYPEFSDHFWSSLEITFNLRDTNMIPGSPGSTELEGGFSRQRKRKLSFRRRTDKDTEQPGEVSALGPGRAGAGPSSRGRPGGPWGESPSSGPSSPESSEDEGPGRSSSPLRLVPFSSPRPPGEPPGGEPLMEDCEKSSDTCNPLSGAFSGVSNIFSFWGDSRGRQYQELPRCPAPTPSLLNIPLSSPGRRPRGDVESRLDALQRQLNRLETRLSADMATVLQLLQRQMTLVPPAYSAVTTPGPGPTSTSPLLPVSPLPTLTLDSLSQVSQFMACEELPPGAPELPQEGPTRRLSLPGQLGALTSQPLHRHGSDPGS
Another data set addresses T1, Adenosine receptor A3 (Homo sapiens, UniProt P0DMS8).
T1 sequence (P0DMS8 whole entry): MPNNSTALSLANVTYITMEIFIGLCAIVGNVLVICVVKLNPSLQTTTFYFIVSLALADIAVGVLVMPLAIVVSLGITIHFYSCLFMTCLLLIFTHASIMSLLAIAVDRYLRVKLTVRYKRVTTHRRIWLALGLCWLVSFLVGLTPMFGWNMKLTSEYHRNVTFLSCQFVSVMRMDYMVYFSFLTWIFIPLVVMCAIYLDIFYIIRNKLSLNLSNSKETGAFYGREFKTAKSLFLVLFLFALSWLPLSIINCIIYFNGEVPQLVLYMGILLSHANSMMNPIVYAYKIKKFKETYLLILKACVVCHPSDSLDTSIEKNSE
Description: Inhibition of adenosine A3 receptor (unknown origin). The format is toxicity.

Data set [2] is described as follows: In vivo inhibition of 2-HG in BALB/c nude mouse xenografted with human U-87 MG cells harboring IDH2 R140Q mutant at 25 mg/kg, po measured after 40 hrs post dose. The data set is classed as functional. Particulars: Mus musculus, BALB/c, U-87 MG.
The nature of data set [3]: In vivo inhibition of 2-HG in BALB/c nude mouse xenografted with human U-87 MG cells harboring IDH2 R140Q mutant at 25 mg/kg, po measured after 24 hrs post dose. The format is functional. The note with it: Mus musculus, BALB/c, U-87 MG. For orientation: In xenograft studies the graft and the host belong to different species.
Data set [4] can be described thus: Oral bioavailability in male Sprague-Dawley rat at 5 mg/kg measured after 24 hrs by LC/MS/MS analysis. The format is ADME, organism-based. The note with it: in vivo.
In data set [5] the target is Isocitrate dehydrogenase [NADP], mitochondrial (Homo sapiens, UniProt P48735, R140Q). Description: Inhibition of IDH2 R140Q mutant (unknown origin) using alpha-ketoglutarate as substrate preincubated with compound for 16 hrs followed by substrate addition and measured after 1 hr in presence of NADPH by fluorescence based analysis.
Sequence of Isocitrate dehydrogenase [NADP], mitochondrial (P48735 40-452 R140Q limits assumed): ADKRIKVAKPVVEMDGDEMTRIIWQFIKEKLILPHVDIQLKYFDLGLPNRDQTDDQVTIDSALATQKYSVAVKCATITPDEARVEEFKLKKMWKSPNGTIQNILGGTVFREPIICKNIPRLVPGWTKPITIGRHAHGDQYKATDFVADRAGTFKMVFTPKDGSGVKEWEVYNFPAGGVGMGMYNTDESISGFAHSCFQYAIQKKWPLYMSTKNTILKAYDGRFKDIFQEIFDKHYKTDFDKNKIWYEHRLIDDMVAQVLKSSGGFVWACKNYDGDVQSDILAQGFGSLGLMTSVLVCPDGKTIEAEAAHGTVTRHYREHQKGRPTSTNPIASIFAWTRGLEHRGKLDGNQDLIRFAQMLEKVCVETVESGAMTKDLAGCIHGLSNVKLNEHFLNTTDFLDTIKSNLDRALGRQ

As a reminder, the IC50 is the midpoint of a concentration-inhibition curve. Broadly, the inhibition in vivo is the share of the control response that was lost under treatment. A higher inhibition in vivo goes with strong suppression. For the molecule `C[C@@H](Nc1nc(N[C@H](C)C(F)(F)F)nc(C2=C(F)[C@H](O)C(F)(F)CC2)n1)C(F)(F)F` [RANOSIDENIB], the IC50 in data set [1] was over 30 µM; on Adenosine receptor A3, 8.5 µM; in data set [5], 0.028 µM. The inhibition in vivo at 25 mg/kg in data set [2] amounted to 93%; in data set [3], 98%. The bioavailability in data set [4] is 113%.
